Data taken from PMC10758781 (Heliyon, 2023).
Read-outs that look alike come from different tables or passages of the source. *1 amine or outer side, *2 acyl side, *3 side chain or, on linkers, in order; H or OH if unused. Where a SMILES comes first, the peptide text is derived from it. Bridges are numbered along the chain shown (N, C = ends). Roman numbers before positions name the chains, in order. [ ]: non-standard residue; d: D form. Actinocin(9to1) = Cc1c2oc3c(C)ccc(C(=O)[*:1])c3nc-2c(C(=O)[*:2])c(N)c1=O; NMeV = CN[C@H](C(=O)O)C(C)C; Sar = CNCC(=O)O

Experiments:
ERβ [1] = biological target: T1, ERβ (Homo sapiens, UniProt Q92731); type: cell-based; conditions: for effect on array size and dsRED2 features (in words): EPA45 library, 6-point dose-response; for activity in GFP-ERβ:PRL-HeLa, EPA45 batch received: first batch of EPA45 chemicals
T1 sequence (Q92731 whole entry): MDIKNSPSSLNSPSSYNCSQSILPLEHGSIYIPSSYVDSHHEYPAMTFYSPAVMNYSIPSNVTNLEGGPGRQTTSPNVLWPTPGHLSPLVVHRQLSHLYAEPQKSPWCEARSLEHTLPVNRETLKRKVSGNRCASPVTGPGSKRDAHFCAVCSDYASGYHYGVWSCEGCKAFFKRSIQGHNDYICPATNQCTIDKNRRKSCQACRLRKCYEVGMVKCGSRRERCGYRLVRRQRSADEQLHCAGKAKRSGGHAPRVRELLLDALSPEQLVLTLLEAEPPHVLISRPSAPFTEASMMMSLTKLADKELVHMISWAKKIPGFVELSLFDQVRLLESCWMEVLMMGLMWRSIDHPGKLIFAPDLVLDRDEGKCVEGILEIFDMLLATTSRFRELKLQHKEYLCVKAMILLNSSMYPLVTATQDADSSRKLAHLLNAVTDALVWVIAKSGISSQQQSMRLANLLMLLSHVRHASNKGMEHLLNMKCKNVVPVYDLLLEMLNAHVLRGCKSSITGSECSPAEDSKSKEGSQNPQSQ

ERβ [2] = biological target: T1, ERβ; type: cell-based; conditions: for decrease of E2-induced stimulation of dsRED2 mRNA / decrease of basal dsRED2 mRNA transcription: 2-h, 4HT, ICI, PHTTP 1 μM, ActD 1 μg/ml, Flavo 100 nM; for decrease of E2-induced stimulation of dsRED2 mRNA: plus E2 10 nM; for decrease of basal dsRED2 mRNA transcription: without E2
zERα = biological target: T2, zERα (Danio rerio, UniProt P57717); type: in vivo, zebrafish; conditions: 3 dpf
T2 sequence (P57717 1-569): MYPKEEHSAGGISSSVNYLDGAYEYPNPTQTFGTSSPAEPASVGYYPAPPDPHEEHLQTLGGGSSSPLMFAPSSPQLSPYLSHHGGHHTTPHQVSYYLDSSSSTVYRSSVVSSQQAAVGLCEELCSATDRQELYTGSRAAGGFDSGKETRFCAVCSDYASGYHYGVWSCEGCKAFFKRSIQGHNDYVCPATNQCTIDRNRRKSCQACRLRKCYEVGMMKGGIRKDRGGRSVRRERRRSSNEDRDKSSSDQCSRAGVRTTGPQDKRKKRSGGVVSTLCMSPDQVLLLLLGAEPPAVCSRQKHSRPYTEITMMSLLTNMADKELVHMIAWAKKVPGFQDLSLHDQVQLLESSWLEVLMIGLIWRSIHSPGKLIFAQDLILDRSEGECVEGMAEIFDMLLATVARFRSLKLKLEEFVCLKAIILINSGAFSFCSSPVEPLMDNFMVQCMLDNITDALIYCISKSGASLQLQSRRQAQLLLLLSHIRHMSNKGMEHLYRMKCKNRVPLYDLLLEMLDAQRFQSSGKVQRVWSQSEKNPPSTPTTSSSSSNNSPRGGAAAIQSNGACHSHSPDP

zERβ2 = type: in vivo, zebrafish; conditions: 3 dpf; for Liver GFP signal, number of zebrafish: total fish in next column
[3] = test system: zebrafish ERs (zERα, zERβ1, and zERβ2); type: in vivo; conditions: 3 dpf
zebrafish = conditions: 3 dpf; for Toxicity, number of zebrafish: total fish in next column
ERβ LBD = ERβ LBD only, without NLS; ref ToxCast [23]; cited from earlier work
[4] = test system: zebrafish ERs (zERα, zERβ1, and zERβ2); conditions: read-out: EC50 in ERE:GFP zebrafish; previously published results; ref [36],[37]; cited from earlier work
[5] = time course, E2 10 nM, 4HT 100 nM
[6] = both concentrations tested (2 and 20 μM)

CC/C(=C(\c1ccc(O)cc1)c1ccc(OCCN(C)C)cc1)c1ccccc1 [4HT, 4-Hydroxytamoxifen]
Z-prime, Array Size (ERβ [1]; 384 well plates, four technical and four biological replicates): 0.61 ± 0.13 | change in array size vs DMSO (in words) (ERβ [1]; [5]): decreasing it | change in nuclear GFP-ERβ levels (in words) (ERβ [1]; [5]): increase in GFP-ERβ signal within the nucleus | decrease of E2-induced stimulation of dsRED2 mRNA (ERβ [2]): > 2 fold | decrease of basal dsRED2 mRNA transcription (ERβ [2]): > 2 fold | intensity of dsRED2 RNA signal at the array (in words) (ERβ [2]; 4HT 100 nM, vs DMSO): diminishing significantly

C[C@]12C[C@H](O)[C@H]3[C@@H](CCC4=CC(=O)CC[C@@]43C)[C@@H]1CC[C@@H]2C(=O)CO [Corticosterone]
effect on array size and dsRED2 features (in words) (ERβ [1]; 2-h): showed response in both features | Heart (zERα/hERβ), zebrafish with GFP signal / total (zERα; 2 μM): 18/18 | Heart (zERα/hERβ), zebrafish with GFP signal / total (zERα; 20 μM): 16/18 | Liver (zERβ/hERα), zebrafish with GFP signal / total (zERβ2; 2 μM): 18/18 | Liver (zERβ/hERα), zebrafish with GFP signal / total (zERβ2; 20 μM): 16/18 | tissue GFP signal (in words) [3, 6]: showed GFP signal in both the liver and heart valve | Dead/Abnormal zebrafish / total (zebrafish; 2 μM): 0/18 | Dead/Abnormal zebrafish / total (zebrafish; 20 μM): 2/18 | activity in BiFC ERβ dimerization assay (ERβ LBD): no effect

C[C@@H]1C[C@@H]([C@H](O)CC2CC(=O)NC(=O)C2)C(=O)[C@@H](C)C1 [Cycloheximide]
effect on array size and dsRED2 features (in words) (ERβ [1]; 2-h): showed response in both features | Liver (zERβ/hERα), zebrafish with GFP signal / total (zERβ2; 2 μM): 0/18 | Liver (zERβ/hERα), zebrafish with GFP signal / total (zERβ2; 20 μM): 1/18 | Dead/Abnormal zebrafish / total (zebrafish; 2 μM): 0/18 | Dead/Abnormal zebrafish / total (zebrafish; 20 μM): 8/18 | toxicity in zebrafish (in words) (zebrafish; 2 and 20 μM): mostly toxic | activity in BiFC ERβ dimerization assay (ERβ LBD): no effect

C[C@]12CC[C@@H]3c4ccc(O)cc4CC[C@H]3[C@@H]1CC[C@@H]2O [E2, Estradiol (17-β)]
increase of intensity of dsRED2 RNA signal at the array (ERβ [2]; E2 10 nM, vs DMSO): ~3 fold | Liver GFP signal, number of zebrafish (zERβ2; 1 nM): 0 | Liver GFP signal, number of zebrafish (zERβ2; 10 nM): 10 | Liver GFP signal, number of zebrafish (zERβ2; 100 nM): 12 | lowest concentration inducing GFP signal in both heart valve and liver [3]: 10 nM | Toxicity, number of zebrafish (zebrafish; 1 nM): 0 | Toxicity, number of zebrafish (zebrafish; 10 nM): 0 | Toxicity, number of zebrafish (zebrafish; 100 nM): 0 | EC50 [4]: 3 to 5 nM

C[C@]12CC[C@@H]3c4ccc(O)cc4C[C@@H](CCCCCCCCC[S+]([O-])CCCC(F)(F)C(F)(F)F)[C@H]3[C@@H]1CC[C@@H]2O (some centres unmarked) [ICI182,780, ICI 182,780]
decrease of E2-induced stimulation of dsRED2 mRNA (ERβ [2]): > 2 fold | decrease of basal dsRED2 mRNA transcription (ERβ [2]): > 2 fold

O=c1c(O)c(-c2ccc(O)cc2)oc2cc(O)cc(O)c12 [Kaempferol]
Liver (zERβ/hERα), zebrafish with GFP signal / total (zERβ2; 2 μM): 0/18 | Liver (zERβ/hERα), zebrafish with GFP signal / total (zERβ2; 20 μM): 0/18 | Dead/Abnormal zebrafish / total (zebrafish; 2 μM): 0/18 | Dead/Abnormal zebrafish / total (zebrafish; 20 μM): 0/18

O=C1C2(Cl)C3(Cl)C4(Cl)C(Cl)(Cl)C5(Cl)C3(Cl)C1(Cl)C5(Cl)C24Cl (centres unmarked) [Kepone]
Liver (zERβ/hERα), zebrafish with GFP signal / total (zERβ2; 2 μM): 0/18 | Liver (zERβ/hERα), zebrafish with GFP signal / total (zERβ2; 20 μM): 0/18 | Dead/Abnormal zebrafish / total (zebrafish; 2 μM): 0/18 | Dead/Abnormal zebrafish / total (zebrafish; 20 μM): 0/18

Oc1ccc(-c2c(-c3ccccc3)nn3c(C(F)(F)F)cc(C(F)(F)F)nc23)cc1 [PHTTP, 4-[2-phenyl-5,7-bis(trifluoromethyl)pyrazolo[1,5-a]pyrimidin-3-yl]phenol]
ER subtype preference across array metrics (ERβ [1]; GFP-ERβ:PRL-HeLa vs GFP-ERα:PRL-HeLa, 2-h, 10pM to 1 μM): preference for ERβ | decrease of E2-induced stimulation of dsRED2 mRNA (ERβ [2]): > 2 fold | decrease of basal dsRED2 mRNA transcription (ERβ [2]): > 2 fold

CCC1(c2ccccc2)C(=O)NC(=O)NC1=O [Phenobarbital sodium]
effect on array size and dsRED2 features (in words) (ERβ [1]; 2-h): showed response in both features | Heart (zERα/hERβ), zebrafish with GFP signal / total (zERα; 2 μM): 17/18 | Heart (zERα/hERβ), zebrafish with GFP signal / total (zERα; 20 μM): 14/18 | Liver (zERβ/hERα), zebrafish with GFP signal / total (zERβ2; 2 μM): 16/18 | Liver (zERβ/hERα), zebrafish with GFP signal / total (zERβ2; 20 μM): 16/18 | tissue GFP signal (in words) [3, 6]: showed GFP signal in both the liver and heart valve | Dead/Abnormal zebrafish / total (zebrafish; 2 μM): 1/18 | Dead/Abnormal zebrafish / total (zebrafish; 20 μM): 1/18 | activity in BiFC ERβ dimerization assay (ERβ LBD): no effect

Cc1c2oc3c(C)ccc(C(=O)N[C@@H]4C(=O)N[C@H](C(C)C)C(=O)N5CCC[C@H]5C(=O)N(C)CC(=O)N(C)[C@@H](C(C)C)C(=O)O[C@@H]4C)c3nc-2c(C(=O)N[C@@H]2C(=O)N[C@H](C(C)C)C(=O)N3CCC[C@H]3C(=O)N(C)CC(=O)N(C)[C@@H](C(C)C)C(=O)O[C@@H]2C)c(N)c1=O [actinomycin D] (I: T[dV]P[Sar][NMeV] / II: T[dV]P[Sar][NMeV]; ester I:1-I:C, II:1-II:C; linker I:N-II:N via Actinocin(9to1))
decrease of E2-induced stimulation of dsRED2 mRNA (ERβ [2]): > 2 fold | decrease of basal dsRED2 mRNA transcription (ERβ [2]): > 2 fold

CCCCOC(=O)c1ccccc1C(=O)OCc1ccccc1 [benzylbutylphthalate]
activity in BiFC ERβ dimerization assay (ERβ LBD): hits

CC(C)(c1ccc(O)cc1)c1ccc(O)cc1 [bisphenol A]
activity in GFP-ERβ:PRL-HeLa, EPA45 batch received (ERβ [1]; 2-h): inactive | activity in GFP-ERβ:PRL-HeLa, independent batches (ERβ [1]; independent batches of the chemicals): confirmed activity

CCC(C)(c1ccc(O)cc1)c1ccc(O)cc1 [bisphenol B]
activity in GFP-ERβ:PRL-HeLa, EPA45 batch received (ERβ [1]; 2-h): inactive | activation of dsRED2, independent batch (ERβ [2]; independent batch of the chemical): little activation

OC(c1ccc(Cl)cc1)(c1ccc(Cl)cc1)C(Cl)(Cl)Cl [dicofol]
activity in BiFC ERβ dimerization assay (ERβ LBD): hits

CC/C(=C(/CC)c1ccc(O)cc1)c1ccc(O)cc1 [diethylstilbestrol]
activity in GFP-ERβ:PRL-HeLa, EPA45 batch received (ERβ [1]; 2-h): inactive

OC(c1ccc(Cl)cc1)(c1cncnc1)c1ccccc1Cl (centres unmarked) [fenarimol]
activity in BiFC ERβ dimerization assay (ERβ LBD): hits

CN1CC[C@H](c2c(O)cc(O)c3c(=O)cc(-c4ccccc4Cl)oc23)[C@H](O)C1 [flavopirodol]
decrease of E2-induced stimulation of dsRED2 mRNA (ERβ [2]): > 2 fold | decrease of basal dsRED2 mRNA transcription (ERβ [2]): > 2 fold

O=c1c(-c2ccc(O)cc2)coc2cc(O)cc(O)c12 [genistein, Genistein]
Liver GFP signal, number of zebrafish (zERβ2; 1 μM): 0 | Liver GFP signal, number of zebrafish (zERβ2; 10 μM): 12 | Liver GFP signal, number of zebrafish (zERβ2; 100 μM): 6 | tissue GFP signal (in words) ([3]; 1 μM): only heart valve signal | tissue GFP signal (in words) ([3]; 10 μM): heart valve and liver signal | Toxicity, number of zebrafish (zebrafish; 1 μM): 0 | Toxicity, number of zebrafish (zebrafish; 10 μM): 0 | Toxicity, number of zebrafish (zebrafish; 100 μM): 12

COc1ccc(C(c2ccc(OC)cc2)C(Cl)(Cl)Cl)cc1 [methoxychlor]
activity in BiFC ERβ dimerization assay (ERβ LBD): hits
